Experimental findings from patent US20240270741A1 (Cogent Biosciences, Inc., priority 2023, published 2024) are described below.

The structures appear in SMILES notation.

For one assay, the target named is FGFR2 (Homo sapiens, UniProt P21802). The assay is described as follows: FGFR wild type enzyme assay (HTRF KinEASE-TK), FGFR2. The following applies: Enz FGFR2 (nM).
Sequence of FGFR2 (P21802 399-821 limits assumed): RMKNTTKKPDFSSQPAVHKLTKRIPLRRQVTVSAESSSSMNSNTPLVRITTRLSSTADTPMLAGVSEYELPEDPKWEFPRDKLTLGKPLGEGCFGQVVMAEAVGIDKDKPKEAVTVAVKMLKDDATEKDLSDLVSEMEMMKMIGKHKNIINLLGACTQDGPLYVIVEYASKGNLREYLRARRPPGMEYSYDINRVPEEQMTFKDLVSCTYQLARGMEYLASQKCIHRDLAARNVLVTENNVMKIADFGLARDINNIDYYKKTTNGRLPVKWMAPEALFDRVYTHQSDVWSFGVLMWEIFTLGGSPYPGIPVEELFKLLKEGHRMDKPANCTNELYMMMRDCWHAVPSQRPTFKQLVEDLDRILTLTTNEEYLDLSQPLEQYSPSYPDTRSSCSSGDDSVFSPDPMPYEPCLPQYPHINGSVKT
Regarding `Cc1c(-c2cc(Sc3ncc(F)cc3F)c3c(C#N)cnn3c2)cnn1C1CCNCC1` [Example 110, 4-[(3,5-difluoro-2-pyridyl)sulfanyl]-6-[5-methyl-1-(4-piperidyl)pyrazol-4-yl]pyrazolo[1,5-a]pyridine-3-carbonitrile], the IC50 (in general, the midpoint of a concentration-inhibition curve) came out at 3 nM.

The compound `CCSc1cc(-c2cnn([C@H]3CCCN(C[C@H](O)CO)C3)c2)cn2ncc(C#N)c12` [Example 87, 6-[1-[(3S)-1-[(2S)-2,3-dihydroxypropyl]-3-piperidyl]pyrazol-4-yl]-4-ethylsulfanyl-pyrazolo[1,5-a]pyridine-3-carbonitrile] displayed an IC50 of 1 nM.

Take `Cc1ccnc(C)c1Sc1cc(-c2cnn([C@H]3CCCNC3)c2)cn2ncc(C#N)c12` [Example 84, 4-[(2,4-dimethyl-3-pyridyl)sulfanyl]-6-[1-[(3S)-3-piperidyl]pyrazol-4-yl]pyrazolo[1,5-a]pyridine-3-carbonitrile]: the IC50 was 11 nM.

The assay is the same for the next values; noted with them: Enz FGFR2 (nM), FGFR2 wild type enzyme.
Turning to `N#Cc1cnn2cc(-c3cnn4c3CNCC4)cc(Sc3ncccc3F)c12` [Example 183, 4-((3-fluoropyridin-2-yl)thio)-6-(4,5,6,7-tetrahydropyrazolo[1,5-a]pyrazin-3-yl)pyrazolo[1,5-a]pyridine-3-carbonitrile], half-maximal inhibition (IC50) was put at 8 nM.

Compound `Cc1c(-c2cc(Sc3ccc(F)cc3C#N)c3c(C#N)cnn3c2)cnn1[C@H]1CC[C@](C)(O)CC1` [Example 323, 4-((2-cyano-4-fluorophenyl)thio)-6-(1-((1r,4r)-4-hydroxy-4-methylcyclohexyl)-5-methyl-1H-pyrazol-4-yl)pyrazolo[1,5-a]pyridine-3-carbonitrile] gave a concentration for half-maximal inhibition (IC50) of 1 nM.

`Cc1c(-c2cc(Sc3ncccc3F)c3c(C#N)cnn3c2)cnn1[C@@H](C)C1CCNCC1` [Example 161, 4-[(3-fluoro-2-pyridyl)sulfanyl]-6-[5-methyl-1-[(1S)-1-(4-piperidyl)ethyl]pyrazol-4-yl]pyrazolo[1,5-a]pyridine-3-carbonitrile] showed an IC50 of 2 nM.

In the case of `COCC(C)N1CCC(n2ncc(-c3cc(Sc4ncccc4F)c4c(C#N)cnn4c3)c2C)CC1` (stereo not drawn) [Example 158, 4-((3-fluoropyridin-2-yl)thio)-6-(1-(1-(1-methoxypropan-2-yl)piperidin-4-yl)-5-methyl-1H-pyrazol-4-yl)pyrazolo[1,5-a]pyridine-3-carbonitrile], the IC50 turned out to be 2 nM.

In turn, `Cc1c(-c2cc(Sc3ccc(F)cc3C#N)c3c(C#N)cnn3c2)cnn1[C@@H]1C[C@H]2CC[C@@H](C1)N2C` [Example 289, 4-((2-cyano-4-fluorophenyl)thio)-6-(5-methyl-1-((1R,3s,5S)-8-methyl-8-azabicyclo[3.2.1]octan-3-yl)-1H-pyrazol-4-yl)pyrazolo[1,5-a]pyridine-3-carbonitrile] came in with a concentration for half-maximal inhibition (IC50) of 0.5 nM.

In the case of `N#Cc1ccccc1Sc1cc(-c2cnn([C@H]3CC[C@@H](O)CC3)c2)cn2ncc(C#N)c12` [Example 294, 4-((2-cyanophenyl)thio)-6-(1-((1s,4s)-4-hydroxycyclohexyl)-1H-pyrazol-4-yl)pyrazolo[1,5-a]pyridine-3-carbonitrile], 0.5 nM corresponded to half-maximal inhibition (IC50).

Consider `Cc1c(-c2cc(Sc3ccccc3C#N)c3c(C#N)cnn3c2)cnn1[C@H]1CC[C@@](C)(N)CC1` [Example 297, 6-[1-(4-amino-4-methyl-cyclohexyl)-5-methyl-pyrazol-4-yl]-4-(2-cyanophenyl) sulfanylpyrazolo[1,5-a]pyridine-3-carbonitrile], for which the midpoint of inhibition, the IC50, lay at 0.3 nM.

Still in this assay, the particulars now being: Enz FGFR2 (nM), FGFR2 wild type enzyme assay.
`COC(=O)N1CC[C@H](n2cc(-c3cc(Sc4ccccc4C#N)c4c(C#N)cnn4c3)cn2)C1` [Example 483, methyl (S)-3-(4-(3-cyano-4-((2-cyanophenyl)thio)pyrazolo [1,5-a]pyridin-6-yl)-1H-pyrazol-1-yl)pyrrolidine-1-carboxylate]: the half-maximal inhibitory concentration (IC50) came out at 0.5 nM.

Regarding `CN1CC(n2cc(-c3cc(Sc4ncccc4F)c4c(C#N)cnn4c3)cn2)CCC1=O` (stereo not drawn) [Example 505, 4-((3-fluoropyridin-2-yl)thio)-6-(1-(1-methyl-6-oxopiperidin-3-yl)-1H-pyrazol-4-yl)pyrazolo[1,5-a]pyridine-3-carbonitrile], the half-maximal inhibitory concentration (IC50) is 3 nM.

In turn, `N#Cc1cc(F)ccc1Sc1cc(-c2ccc(NCCO)nc2)cn2ncc(C#N)c12` [Example 640, 4-((2-cyano-4-fluorophenyl)thio)-6-(6-((2-hydroxyethyl)amino)pyridin-3-yl)pyrazolo[1,5-a]pyridine-3-carbonitrile] displayed an IC50 of 2.5 nM.

Regarding `CNc1ccc(-c2cc(Sc3ccc(F)cc3C#N)c3c(C#N)cnn3c2)cn1` [Example 575, 4-((2-cyano-4-fluorophenyl)thio)-6-(6-(methylamino)pyridin-3-yl)pyrazolo[1,5-a]pryidine-3-carbonitrile], 5 nM corresponded to half-maximal inhibition (IC50).

As for `Cc1c(-c2cc(Sc3ccc(F)cc3C#N)c3c(C#N)cnn3c2)cnn1[C@H]1CCC[C@H](O)C1` [Example 496, 4-((2-cyano-4-fluorophenyl)thio)-6-(1-((1S,3S)-3-hydroxycyclohexyl)-5-methyl-1H-pyrazol-4-yl)pyrazolo[1,5-a]pyridine-3-carbonitrile], the 50% inhibitory concentration (IC50) turned out to be 3 nM.

For the compound `CC(=O)N1CCC[C@H](n2cc(-c3cc(Sc4ccccc4C#N)c4c(C#N)cnn4c3)cn2)C1` [Example 516, (S)-6-(1-(1-acetylpiperidin-3-yl)-1H-pyrazol-4-yl)-4-((2-cyanophenyl)thio)pyrazolo [1,5-a]pyridine-3-carbonitrile], the IC50 is 0.4 nM.

`C[C@@H](O)C(=O)N1CC[C@@H](n2cc(-c3cc(Sc4ccccc4C#N)c4c(C#N)cnn4c3)cn2)C1` [Example 605, 4-((2-cyanophenyl)thio)-6-(1-((R)-1-((R)-2-hydroxypropanoyl)pyrroli-din-3-yl)-1H-pyrazol-4-yl)pyrazolo[1,5-a]pyridine-3-carbonitrile] returned an IC50 of 0.6 nM.

Take `N#Cc1cnn2cc(-c3cnn(C(CO)CO)c3)cc(Sc3ncccc3F)c12` [Example 524, 6-(1-(1,3-dihydroxypropan-2-yl)-1H-pyrazol-4-yl)-4-((3-fluoropyridin-2-yl)thio)pyrazolo[1,5-a]pyridine-3-carbonitrile]: half-maximal inhibition (IC50) required 3 nM.

`N#Cc1ccccc1Sc1cc(-c2cnn(C3CCOC3)c2)cn2ncc(C#N)c12` (stereo not drawn) [Example 585, 4-((2-cyanophenyl)thio)-6-(1-(tetrahydrofuran-3-yl)-1H-pyrazol-4-yl)pyrazolo[1,5-a]pryidine-3-carbonitrile] displayed an IC50 of 1 nM.

`CC(=O)NCCn1cc(-c2cc(Sc3ccccc3C#N)c3c(C#N)cnn3c2)cn1` [Example 663, N-(2-(4-(3-cyano-4-((2-cyanophenyl)thio)pyrazolo [1,5-a]pyridin-6-yl)-1H-pyrazol-1-yl)ethyl)acetamide] registered a half-maximal inhibitory concentration (IC50) of 2 nM.

With `Cn1cc(-c2cc(Sc3ccccc3C#N)c3c(C#N)cnn3c2)c(N)n1` [Example 642, 6-(3-amino-1-methyl-1H-pyrazol-4-yl)-4-((2-cyanophenyl)thio)pyrazolo [1,5-a]pyridine-3-carbonitrile], the 50% inhibitory concentration (IC50) was determined as 2 nM.

`N#Cc1ccccc1Sc1cc(-c2cnn(CC[C@H](O)CO)c2)cn2ncc(C#N)c12` [Example 668, (S)-4-((2-cyanophenyl)thio)-6-(1-(3,4-dihydroxybutyl)-1H-pyrazol-4-yl)pyrazolo[1,5-a]pyridine-3-carbonitrile] showed an IC50 of 0.4 nM.

Compound `N#Cc1ccccc1Sc1cc(-c2cnn([C@H]3CCCN(C(=O)CO)C3)c2)cn2ncc(C#N)c12` [Example 517, (S)-4-((2-cyanophenyl)thio)-6-(1-(1-(2-hydroxyacetyl)piperidin-3-yl)-1H-pyrazol-4-yl)pyrazolo[1,5-a]pyridine-3-carbonitrile] yielded an IC50 of 0.4 nM.

`N#Cc1ccccc1Sc1cc(-c2cnn(-c3cn[nH]c3)c2)cn2ncc(C#N)c12` [Example 609, 6-(1′H-[1,4′-bipyrazol]-4-yl)-4-((2-cyanophenyl)thio)pyrazolo [1,5-a]pyridine-3-carbonitrile] had an IC50 of 4 nM.

`CC(=O)N1CC[C@H](n2ncc(-c3cc(Sc4ccc(F)cc4C#N)c4c(C#N)cnn4c3)c2C)C[C@@H]1C` [Example 411, 6-(1-((2S,4S)-1-acetyl-2-methylpiperidin-4-yl)-5-methyl-1H-pyrazol-4-yl)-4-((2-cyano-4-fluorophenyl)thio)pyrazolo [1,5-a]pyridine-3-carbonitrile] had a 50% inhibitory concentration (IC50) of 2 nM.

With `CC(=O)N1CCC(n2cc(-c3cc(Sc4ccc(F)cc4C#N)c4c(C#N)cnn4c3)cn2)CC1` [Example 429, 6-(1-(1-acetylpiperidin-4-yl)-1H-pyrazol-4-yl)-4-((2-cyano-4-fluorophenyl)thio)pyrazolo [1,5-a]pyridine-3-carbonitrile], half-maximal inhibition (IC50) required 1 nM.

With `Cn1ncc(-c2cc(Sc3ncccc3F)c3c(C#N)cnn3c2)c1N` [Example 545, 6-(5-amino-1-methyl-pyrazol-4-yl)-4-[(3-fluoro-2-pyridyl)sulfanyl]pyrazolo[1,5-a]pyridine-3-carbonitrile], inhibition was half-maximal at 3 nM (IC50).

`Cc1c(-c2cc(Sc3ccc(F)cc3C#N)c3c(C#N)cnn3c2)cnn1[C@H]1CC[C@H](OP(=O)(O)O)CC1` [Example 543, [4-[4-[3-cyano-4-(2-cyano-4-fluoro-phenyl)sulfanyl-pyrazolo[1,5-a]pyridin-6-yl]-5-methylpyrazol-1-yl]cyclohexyl] dihydrogen phosphate] had an IC50 of 2 nM.

`CN=S1(=O)CCC(n2cc(-c3cc(Sc4ccc(F)cc4C#N)c4c(C#N)cnn4c3)cn2)CC1` (stereo not drawn) [Example 658, 4-((2-cyano-4-fluorophenyl)thio)-6-(1-(1-(methylimino)-1-oxidohexahydro-1l6-thiopyran-4-yl)-1H-pyrazol-4-yl)pyrazolo[1,5-a]pyridine-3-carbonitrile] came in with an IC50 of 1.5 nM.

As to `CC(=O)N[C@H]1CC[C@H](n2cc(-c3cc(Sc4ccccc4C#N)c4c(C#N)cnn4c3)cn2)C1` [Example 350, N-((1s,3S)-3-(4-(3-cyano-4-((2-cyanophenyl)thio)pyrazolo [1,5-a]pyridin-6-yl)-1H-pyrazol-1-yl)cyclopentyl)acetamide], 0.5 nM corresponded to half-maximal inhibition (IC50).
